These are literature values, as cited in PubChem BioAssay AID1259409 (Chemical Carcinogenesis Research Information System (CCRIS), 2018).

The data set concerns rodent chemically induced tumor inhibition, incidence and multiplicity. The experiment in a line: CCRIS tumor inhibitor studies.

In the case of `C=CC1=C(C)C2=CC3=NC(=C(CC(=O)O)C4=NC(=C(C)C4=C(O)O)C=c4[nH]c(c(C)c4CC)=CC1=N2)C(CCC(=O)O)C3C` (stereo not given), the outcome was 0/22 (0%), 2/20 (10%), -%, not significant (Carcinogen: 2-AMINO-3-METHYLIMIDAZO[4,5-F]QUINOLINE [76180-96-6], Dose [Inhibitor]: 0, 0.01% (W/V BASED ON TOTAL CHLORINS) IN DRINKING WATER BEGINNING 1 WK POST CARCINOGEN TREATMENT FOR THE DURATION STUDY, Route [Inhibitor]: ORAL, Species: RAT, Strain/Sex: F344/MALE, Target Tissue: Type of Lesion: SMALL INTESTINE: TUMOR, Dose [Carcinogen]: 0.03% IN DIET FOR FIRST 5 WK (STUDY DURATION: 52 WK), Promoter: NONE); 0/22 (0%), 0/22 (0%), 0%, not significant (Carcinogen: 2-AMINO-3-METHYLIMIDAZO[4,5-F]QUINOLINE [76180-96-6], Dose [Inhibitor]: 0, 0.1% (W/V BASED ON TOTAL CHLORINS) IN DRINKING WATER BEGINNING 1 WK POST CARCINOGEN TREATMENT FOR THE DURATION STUDY, Route [Inhibitor]: ORAL, Species: RAT, Strain/Sex: F344/MALE, Target Tissue: Type of Lesion: SMALL INTESTINE: TUMOR, Dose [Carcinogen]: 0.03% IN DIET FOR FIRST 5 WK (STUDY DURATION: 52 WK), Promoter: NONE); “liver: 74% reduction in vol % of liver occupied (p<0.001) colon; 63% reduction i” (Dose [Inhibitor]: 250 mg/kg chlorophyllin by gavage daily for 10 days (Study duration 18 wk) (Test material solvent: tricaprylin), Route [Inhibitor]: Oral, Species: Rat, Strain/Sex: F344/Male, Target Tissue: Type of Lesion: Liver: GST placental form positive foci. Colon: aberrant crypt foci, Dose [Carcinogen]: 250 ug/kg by gavage daily for 10 days along or in combination with inhibitor (Study duration 18 wk) (Test material solve, Promoter: None). Besides, the “tumour outcome (control, treated, inhibition, significance)” value is 5/22 (23%), 5/20 (25%), -9%, not significant (Carcinogen: 2-AMINO-3-METHYLIMIDAZO[4,5-F]QUINOLINE [76180-96-6], Dose [Inhibitor]: 0, 0.01% (W/V BASED ON TOTAL CHLORINS) IN DRINKING WATER BEGINNING 1 WK POST CARCINOGEN TREATMENT FOR THE DURATION STUDY, Route [Inhibitor]: ORAL, Species: RAT, Strain/Sex: F344/MALE, Target Tissue: Type of Lesion: ZYMBAL'S GLAND: TUMOR, Dose [Carcinogen]: 0.03% IN DIET FOR FIRST 5 WK (STUDY DURATION: 52 WK), Promoter: NONE); 2/22 (9%), 2/22 (9%), 0%, not significant (Carcinogen: 2-AMINO-3-METHYLIMIDAZO[4,5-F]QUINOLINE [76180-96-6], Dose [Inhibitor]: 0, 0.1% (W/V BASED ON TOTAL CHLORINS) IN DRINKING WATER BEGINNING 1 WK POST CARCINOGEN TREATMENT FOR THE DURATION STUDY, Route [Inhibitor]: ORAL, Species: RAT, Strain/Sex: F344/MALE, Target Tissue: Type of Lesion: COLON: TUMOR, Dose [Carcinogen]: 0.03% IN DIET FOR FIRST 5 WK (STUDY DURATION: 52 WK), Promoter: NONE); 16/22 (73%), 8/22 (36%), 51%, p<0.05 (Carcinogen: 2-AMINO-3-METHYLIMIDAZO[4,5-F]QUINOLINE [76180-96-6], Dose [Inhibitor]: 0, 0.1% (W/V BASED ON TOTAL CHLORINS) IN DRINKING WATER BEGINNING 1 WK POST CARCINOGEN TREATMENT FOR THE DURATION STUDY, Route [Inhibitor]: ORAL, Species: RAT, Strain/Sex: F344/MALE, Target Tissue: Type of Lesion: LIVER: TUMOR, Dose [Carcinogen]: 0.03% IN DIET FOR FIRST 5 WK (STUDY DURATION: 52 WK), Promoter: NONE); 7/22 (32%), 8/22 (36%), -12.5%, not significant (Carcinogen: 2-AMINO-3-METHYLIMIDAZO[4,5-F]QUINOLINE [76180-96-6], Dose [Inhibitor]: 0, 0.1% (W/V BASED ON TOTAL CHLORINS) IN DRINKING WATER BEGINNING 1 WK POST CARCINOGEN TREATMENT FOR THE DURATION STUDY, Route [Inhibitor]: ORAL, Species: RAT, Strain/Sex: F344/MALE, Target Tissue: Type of Lesion: SKIN: TUMOR, Dose [Carcinogen]: 0.03% IN DIET FOR FIRST 5 WK (STUDY DURATION: 52 WK), Promoter: NONE); 5/22 (23%), 3/22 (14%), 39%, not significant (Carcinogen: 2-AMINO-3-METHYLIMIDAZO[4,5-F]QUINOLINE [76180-96-6], Dose [Inhibitor]: 0, 0.1% (W/V BASED ON TOTAL CHLORINS) IN DRINKING WATER BEGINNING 1 WK POST CARCINOGEN TREATMENT FOR THE DURATION STUDY, Route [Inhibitor]: ORAL, Species: RAT, Strain/Sex: F344/MALE, Target Tissue: Type of Lesion: ZYMBAL'S GLAND: TUMOR, Dose [Carcinogen]: 0.03% IN DIET FOR FIRST 5 WK (STUDY DURATION: 52 WK), Promoter: NONE); 100%, 40%, 60%, not calculated (Carcinogen: 7,12-DIMETHYLBENZ[A]ANTHRACENE [57-97-6], Dose [Inhibitor]: 0, 0.5% IN 0.2 ML DMSO-ACETONE (15:85, V/V) 2X/WK FOR 30 WK 10 MIN PRIOR TO PROMOTER DOSE (STUDY DURATION: 31 WK), Route [Inhibitor]: DERMAL, Species: MOUSE, Strain/Sex: ICR/FEMALE, Target Tissue: Type of Lesion: SKIN: PAPILLOMA, Dose [Carcinogen]: 0.2 UMOL ONCE (STUDY DURATION: 31 WK), Promoter: 12-O-TETRADECANOYLPHORBOL-13-ACETATE [16561-29-8]). The “tumour outcome (control, treated, inhibition, significance)” value runs as follows: (Carcinogen: DIBENZO[A,L]PYRENE [191-30-0], Dose [Inhibitor]: 2052 PPM IN DIET FOR 3 WK BEGINNING 1 WK PRIOR TO FIRST CARCINOGEN DOSE (STUDY DURATION: 11 MONTHS), Route [Inhibitor]: ORAL, Species: FISH, Strain/Sex: SHASTA STRAIN RAINBOW TROUT/MALE,FEMALE, Target Tissue: Type of Lesion: LIVER: TUMOR, Dose [Carcinogen]: 500 PPM IN DIET FOR 2 WK (STUDY DURATION: 11 MONTHS), Promoter: NONE) 61%, 18%, 70%, p<0.001; (Carcinogen: DIBENZO[A,L]PYRENE [191-30-0], Dose [Inhibitor]: 2052 PPM IN DIET FOR 3 WK BEGINNING 1 WK PRIOR TO FIRST CARCINOGEN DOSE (STUDY DURATION: 11 MONTHS), Route [Inhibitor]: ORAL, Species: FISH, Strain/Sex: SHASTA STRAIN RAINBOW TROUT/MALE,FEMALE, Target Tissue: Type of Lesion: STOMACH: TUMOR, Dose [Carcinogen]: 500 PPM IN DIET FOR 2 WK (STUDY DURATION: 11 MONTHS), Promoter: NONE) 91%, 34%, 63%, p<0.001; (Carcinogen: DIBENZO[A,L]PYRENE [191-30-0], Dose [Inhibitor]: 2052 PPM IN DIET FOR 3 WK BEGINNING 1 WK PRIOR TO FIRST CARCINOGEN DOSE (STUDY DURATION: 11 MONTHS), Route [Inhibitor]: ORAL, Species: FISH, Strain/Sex: SHASTA STRAIN RAINBOW TROUT/MALE,FEMALE, Target Tissue: Type of Lesion: SWIM BLADDER: TUMOR, Dose [Carcinogen]: 500 PPM IN DIET FOR 2 WK (STUDY DURATION: 11 MONTHS), Promoter: NONE) 53%, 3%, 94%, p<0.001; (Carcinogen: DIBENZO[A,L]PYRENE [191-30-0], Dose [Inhibitor]: 4000 PPM IN DIET FOR 5 WK BEGINNING 1 WK PRIOR TO FIRST CARCINOGEN DOSE (STUDY DURATION: 9 MONTHS), Route [Inhibitor]: ORAL, Species: FISH, Strain/Sex: SHASTA STRAIN RAINBOW TROUT/MALE,FEMALE, Target Tissue: Type of Lesion: LIVER: TUMOR, Dose [Carcinogen]: 200 PPM IN DIET FOR 4 WK (STUDY DURATION: 9 MONTHS), Promoter: NONE) 36%, 13%, 64%, p<0.001; (Carcinogen: DIBENZO[A,L]PYRENE [191-30-0], Dose [Inhibitor]: 4000 PPM IN DIET FOR 5 WK BEGINNING 1 WK PRIOR TO FIRST CARCINOGEN DOSE (STUDY DURATION: 9 MONTHS), Route [Inhibitor]: ORAL, Species: FISH, Strain/Sex: SHASTA STRAIN RAINBOW TROUT/MALE,FEMALE, Target Tissue: Type of Lesion: STOMACH: TUMOR, Dose [Carcinogen]: 200 PPM IN DIET FOR 4 WK (STUDY DURATION: 9 MONTHS), Promoter: NONE) 48%, 13%, 73%, p<0.001; (Carcinogen: DIBENZO[A,L]PYRENE [191-30-0], Dose [Inhibitor]: 4000 PPM IN DIET FOR 5 WK BEGINNING 1 WK PRIOR TO FIRST CARCINOGEN DOSE (STUDY DURATION: 9 MONTHS), Route [Inhibitor]: ORAL, Species: FISH, Strain/Sex: SHASTA STRAIN RAINBOW TROUT/MALE,FEMALE, Target Tissue: Type of Lesion: SWIM BLADDER: TUMOR, Dose [Carcinogen]: 200 PPM IN DIET FOR 4 WK (STUDY DURATION: 9 MONTHS), Promoter: NONE) 30%, 5%, 83%, p<0.001.
